Test results from patent US20110269721A1, “METHODS OF TREATING THALASSEMIA” (TargeGen, Inc., priority 2008, published 2011).

Key:
[1] = tested on: purified erythroid cells isolated from the spleens of normal and thalassemic mice; experiment: Primary splenic erythroid cell cultures with CFSE staining (cell proliferation); format: cell-based, mouse; details: for CFSE FACS profile versus untreated cells: erythroid cells from wt mice, FIG. 2A legend, n=4 per genotype; for effect on cell proliferation of erythroid cultures (CFSE): erythroid cultures from thalassemic mice, AG490 100 uM, FIG. 2A; for total cell number as % of the initial cell numbers: 48 h in culture with Epo, with colcemid, n=4
Method: Spleens from […] were harvested and mechanically dissociated into single cell suspensions. Murine mononuclear cells were then isolated by centrifugation using Lympholyte-M density gradients (Cedarlane Laboratories Ltd, Westbury, N.Y.) following the manufacturer's instructions. Cells were incubated on ice for 15 minutes with a cocktail containing 10 μg each of non-erythroid FITCconjugated antibodies (GR-1, MAC1, CD4, CD8, CD11b, and CD49) (BD PharMingen). After washing, the cells were incubated for 15 minutes at 4° C. with anti-FITC microbeads (Miltenyi Biotech, Auburn, Calif.). The cell suspension was placed on a magnetic column and the eluted erythroid cells were kept for RNA extraction, protein analysis, in vitro culture with carboxy-fluorescein diacetate succinimidyl ester (CFSE; MolecularProbes, Eugene, Oreg.) staining or flow cytometric analysis. CFSE was added to the cells to give a final concentration of 1.25 uM. After 10 minutes at 37° C., further dye uptake was prevented by addition of 5 volumes of cold medium and incubated in ice for 5 minutes. The cells were then washed three times and seeded at 1×10^7 cells/ml in IMDM with 30% FBS (Hyclone, South Logan, Utah 84321), 1% deionized BSA, 100 IU/ml of penicillin, 100 ug/mL of streptomycin (Mediatech, Manassas, Va.), […] beta-thioglycerol (mTG; Sigma-Aldrich), and […] rHuEpo (10 U/ml; Amgen Mfg. Ltd. Thousand Oaks, Calif.). […] In order to visualize cell division, the cultured erythroid cells were stained with CFSE. Once the dye is inside the cell, it binds to cytoskeletal proteins and is divided equally between daughter cells. Thus, it is possible to determine if cells are dividing by monitoring the reduction of CFSE fluorescence (FIG. 2A).

[2] = tested on: normal and thalassemic mice; experiment: In vivo administration of Jak2 inhibitor to normal and thalassemic mice; set-up: species or system mouse
Text: Mouse models that mimic beta-thalassemia intermedia (th3/+) and major (th3/th3) were used. (Rivella, S. et al, A novel murine model of Cooley anemia and its rescue by lentiviral mediated human beta globin gene transfer. Blood (2003) 101: 2932-2939, hereby incorporated by reference.) In th3/+ mice both the betaminor and betamajor gens have been deleted from one chromosome. Mice completely lacking adult beta-globin (th3/th3) die late in gestation. To circumvent this problem, bone marrow transplantation is conducted wherein hematopoietic fetal liver cells (HFLCs) were harvested from th3/th3 embryos at embryonic day 14.5 (E14.5) and injected into lethally irradiated syngeneic wild-type (wt) adult recipients.
Compound A, a Jak2 inhibitor, was administered to cohorts of normal and thalassemic mice of different ages. […] These observations indicate that the main role of pJak2 is to propel the erythropoietic drive.

Compound | CFSE FACS profile versus untreated cells [1] | effect on cell proliferation of erythroid cultures (CFSE) [1] | spleen size ([2]; 6- and 12-week old thalassemic mice, 10 and 18 days of treatment) | Hb levels ([2]; thalassemic mice, 10 and 18 days of treatment) | erythropoiesis and size of the spleen ([2]; young normal animals) | total cell number as % of the initial cell numbers ([1]; th3/+ erythroid cells) | total cell number as % of the initial cell numbers ([1]; th3/th3 erythroid cells) | total cell number as % of the initial cell numbers ([1]; wt erythroid cells)
N#C/C(=C/c1ccc(O)c(O)c1)C(=O)NCc1ccccc1 [AG490] | little difference from untreated cells | blocking cell proliferation |  |  |  |  |  | 
Cc1cnc(Nc2ccc(N3CCN(C)CC3)cc2)nc1Nc1cccc(S(=O)(=O)NC(C)(C)C)c1 [compound A] |  | blocking cell proliferation | dramatically reduced | decreasing Hb levels | affected both erythropoiesis and the size of the spleen |  |  | 
CN[C@H]1CCc2cc(OC)c(OC)c(OC)c2-c2ccc(OC)c(=O)cc21 [colcemid] | little difference from untreated cells |  |  |  |  | 88±18% | 72±25% | 46±9%
